Experimental data from ChEMBL document CHEMBL2074499, “Cloning and functional expression of a human liver organic cation transporter” (Mol Pharmacol, 1997).

Assays:
[1] = biological target: T1, Solute carrier family 22 member 1 (Homo sapiens, UniProt O15245); assay: TP_TRANSPORTER: inhibition of MPP+ uptake in Xenopus laevis oocytes; format: functional, cell-based, Oocyte
T1 sequence (O15245 whole entry): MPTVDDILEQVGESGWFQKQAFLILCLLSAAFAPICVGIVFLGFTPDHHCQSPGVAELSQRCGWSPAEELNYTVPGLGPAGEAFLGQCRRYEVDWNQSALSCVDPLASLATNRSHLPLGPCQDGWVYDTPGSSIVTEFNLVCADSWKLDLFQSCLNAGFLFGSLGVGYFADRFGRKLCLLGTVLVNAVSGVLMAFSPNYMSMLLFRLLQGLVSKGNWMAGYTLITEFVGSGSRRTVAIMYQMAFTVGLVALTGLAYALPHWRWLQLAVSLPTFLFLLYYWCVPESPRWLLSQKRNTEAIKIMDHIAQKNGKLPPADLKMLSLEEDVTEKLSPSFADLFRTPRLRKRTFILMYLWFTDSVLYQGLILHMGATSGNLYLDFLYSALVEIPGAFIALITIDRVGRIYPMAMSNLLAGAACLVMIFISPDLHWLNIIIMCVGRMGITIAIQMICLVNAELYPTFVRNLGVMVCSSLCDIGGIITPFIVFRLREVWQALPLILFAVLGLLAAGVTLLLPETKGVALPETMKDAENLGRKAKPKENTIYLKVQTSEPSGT

[2] = biological target: T1, Solute carrier family 22 member 1; assay: TP_TRANSPORTER: inhibition of MPP+ uptake (MPP+: 0.85 uM, Verapamil: 5000 uM) in Xenopus laevis oocytes; format: functional, cell-based; conditions: oocyte
[3] = biological target: T1, Solute carrier family 22 member 1; assay: TP_TRANSPORTER: inhibition of MPP+ uptake (MPP+: 0.85 uM, Thymidine: 5000 uM) in Xenopus laevis oocytes; format: functional, cell-based; conditions: oocyte
[4] = biological target: T1, Solute carrier family 22 member 1; assay: TP_TRANSPORTER: inhibition of MPP+ uptake (MPP+: 0.15 uM, Inosine: 1000 uM) in Xenopus laevis oocytes; format: functional, cell-based; conditions: oocyte
[5] = biological target: T1, Solute carrier family 22 member 1; assay: TP_TRANSPORTER: inhibition of MPP+ uptake (MPP+: 0.85 uM, NMN: 5000 uM) in Xenopus laevis oocytes; format: functional, cell-based; conditions: oocyte
[6] = biological target: T1, Solute carrier family 22 member 1; assay: TP_TRANSPORTER: inhibition of MPP+ uptake (MPP+: 0.85 uM, Pancuronium: 1000 uM) in Xenopus laevis oocytes; format: functional, cell-based; conditions: oocyte
[7] = biological target: T1, Solute carrier family 22 member 1; assay: TP_TRANSPORTER: inhibition of MPP+ uptake (MPP+: 0.85 uM, Procainamide: 5000 uM) in Xenopus laevis oocytes; format: functional, cell-based; conditions: oocyte
[8] = biological target: T1, Solute carrier family 22 member 1; assay: TP_TRANSPORTER: inhibition of MPP+ uptake (MPP+: 0.85 uM, Quinidine: 1000 uM) in Xenopus laevis oocytes; format: functional, cell-based; conditions: oocyte
[9] = biological target: T1, Solute carrier family 22 member 1; assay: TP_TRANSPORTER: inhibition of MPP+ uptake (MPP+: 0.85 uM, Quinine: 1000 uM) in Xenopus laevis oocytes; format: functional, cell-based; conditions: oocyte
[10] = substrate: C[n+]1ccc(-c2ccccc2)cc1; assay: TP_TRANSPORTER: uptake in Xenopus laevis oocytes; format: functional, cell-based, Oocyte

Molecule: CCN1/C(=C/c2ccc3ccccc3[n+]2CC)C=Cc2ccccc21
- Ki [1]: 4.4 µM

Molecule: COc1ccc(CCN(C)CCCC(C#N)(c2ccc(OC)c(OC)c2)C(C)C)cc1OC (configuration not stated)
- Activity [2]: inhibitor [+]

Molecule: Cc1cn([C@H]2C[C@H](O)[C@@H](CO)O2)c(=O)[nH]c1=O [DOXRIBTIMINE]
- Activity [3]: inhibitor [+]

Molecule: OC[C@H]1O[C@@H](n2cnc3c(O)ncnc32)[C@H](O)[C@@H]1O [INOSINE]
- Activity [4]: inhibitor [+]

Molecule: CNC(=O)c1cccnc1 [NICOTINYL METHYLAMIDE]
- Activity [5]: inhibitor [+]

Molecule: CC(=O)O[C@H]1C[C@@H]2CC[C@@H]3[C@H](CC[C@@]4(C)[C@H]3C[C@H]([N+]3(C)CCCCC3)[C@@H]4OC(C)=O)[C@@]2(C)C[C@@H]1[N+]1(C)CCCCC1 [PANCURONIUM]
- Activity [6]: inhibitor [+]

Molecule: CCN(CC)CCNC(=O)c1ccc(N)cc1 [PROCAINAMIDE]
- Activity [7]: inhibitor [+]

Molecule: C=C[C@H]1C[N@@]2CC[C@H]1C[C@@H]2[C@@H](O)c1ccnc2ccc(OC)cc12 [QUINIDINE]
- Activity [8]: inhibitor [+]

Molecule: C=C[C@H]1C[N@@]2CC[C@H]1C[C@H]2[C@H](O)c1ccnc2ccc(OC)cc12 [QUININE]
- Activity [9]: inhibitor [+]

Molecule: CC[N+](CC)(CC)CC [TETRYLAMMONIUM]
- Ki [1]: 163 µM

Molecule: CC(=O)O[C@H]1C[C@@H]2CC[C@@H]3[C@H](CC[C@@]4(C)[C@H]3C[C@H]([N+]3(C)CCCCC3)[C@@H]4OC(C)=O)[C@@]2(C)C[C@@H]1N1CCCCC1 [VECURONIUM]
- Ki [1]: 120 µM

B1: Solute carrier family 22 member 1 (Homo sapiens) (protein)
chain: T1 sequence (O15245 whole entry)
- Km [10]: 14.6 µM
